Assay results from publication PMC3955162 (Nature neuroscience, 2013).
Numbering of substitutions follows the chain as printed. Values belong to the molecule of their own block, whether it stands above or below them.

What was measured:
[1] = target: T1, ACR-23(I301N) (Caenorhabditis elegans, UniProt G5EG88, I301N); test: two-electrode voltage clamp in Xenopus oocytes expressing ACR-23; format: cell-based
T1 sequence (G5EG88 20-545 I301N): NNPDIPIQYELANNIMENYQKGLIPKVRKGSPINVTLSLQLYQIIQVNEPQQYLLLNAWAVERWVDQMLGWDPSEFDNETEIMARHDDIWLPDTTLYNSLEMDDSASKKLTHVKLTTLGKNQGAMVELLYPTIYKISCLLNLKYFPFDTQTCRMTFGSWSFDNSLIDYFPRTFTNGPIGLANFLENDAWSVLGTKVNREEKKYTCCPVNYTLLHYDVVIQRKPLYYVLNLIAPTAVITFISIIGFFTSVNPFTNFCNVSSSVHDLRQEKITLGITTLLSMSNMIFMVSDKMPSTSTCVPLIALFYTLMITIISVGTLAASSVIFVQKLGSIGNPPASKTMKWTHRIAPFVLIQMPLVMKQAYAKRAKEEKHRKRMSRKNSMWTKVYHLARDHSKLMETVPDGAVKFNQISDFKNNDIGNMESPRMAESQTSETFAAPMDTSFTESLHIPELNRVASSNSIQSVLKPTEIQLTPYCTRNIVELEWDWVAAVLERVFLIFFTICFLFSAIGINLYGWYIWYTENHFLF

[2] = target: T2, ACR-23 (Caenorhabditis elegans, UniProt G5EG88); test: as above; format: cell-based
T2 sequence (G5EG88 20-545): T1 sequence (G5EG88 20-545 I301N) with N282I

[3] = target: T2, ACR-23; test: two-electrode voltage clamp in Xenopus oocytes; format: cell-based
[4] = substrate: C[N+](C)(C)CC(=O)O; test: cells, lysate or membranes; conditions: Na+ and Cl−

Molecule: C[N+](C)(C)CC(=O)O [betaine, N, N, N-trimethylglycine]
EC50 [1]: 166 µM
EC50 [2]: 1400 µM

two-electrode voltage clamp in Xenopus oocytes; potentiation of 1 mM betaine cur [3]: 300 pM
Molecule: C[C@](C#N)(COc1cc(C#N)ccc1C(F)(F)F)NC(=O)c1ccc(SC(F)(F)F)cc1 [monepantel]

B1: SNF-3 (Caenorhabditis elegans) (protein)
chain: MGTSEHVPLPTDEAKAKELEQSQHSEEPDRGQWTGKFDFLMSMVAYAVGLGNVWRFPYLCYKNGGGSFLVVYMIFFCLAAVPIFLMEVTVGQYLQKGAMEMWLMCPLFRGVGIGNVVIAFMCIAYFCVIVAWAMFYMISSIAWVFPWETCNNYWNDATCVTGKENFTELARIKALVASAGGHTQTSVEQFWEKRVLHDTGDISEFGGIQWELFFIMAAAWLIVYFALWKGITQARKFVYFCALFPYVLIFILLIRGLTLEGAGTGIYFYLKPNATRLLDTAVWKDAGTQVFYSYGVGFGALIALGSHNKFNHNCFKDAITMCFINGCTSITAGFAVFSILGYMSHVAQKDISEIVKPGVGLAFLAYPEVASNLPMKQVFAVLFFLMITILGLDSQVCMMEGLFTALEDAFPILRKYKKQSLGIFCLFFFCIGIPMVTHSGSHWLTLFDAYGASGYALLFVVFFEVVGLAYGFGAHNIRKALHEMIGVTLPKGIEYVWKFCAPATSLVLFVFCVVYYHPVKYPDGKDFPFWANAFGWFLSSCSMVVIPGYAIYYLFFTNKHLTLKERVRKGLNLDGSFESPAKKNLVNNAEELKFIESSSQ
Km [4]: 320 ± 50 µM
